Measured values published in patent US20210290648A1, “Potentiation of B-Lactam Antibiotics and B-Lactam/B-Lactamase Inhibitor Combinations Against Multidrug and Extensively Drug-Resistant Pseudomonas Aeruginosa Using Non-Ribosomal Tobramycin-Cyclam Conjugates” (University of Manitoba, priority 2018, published 2021).

Tested on: β-lactamase-harboring MDR P. aeruginosa clinical isolates
Experiment: Triple combination susceptibility (β-lactam + avibactam + compound 2)
Assay type: cell-based, Pseudomonas aeruginosa
Description: The diazabicyclooctane β-lactamase inhibitor, avibactam, is able to inhibit a wide range of serine β-lactamases (class A, C, and D) but not metallo-β-lactamases (class B) (50, 51).^50,51 However, the high concentration of avibactam required to neutralize the effects of β-lactamase enzymes in these phenotypes is indicative of concomitant permeability barriers in the isolates, such as reduced porin uptake. […] The results of this study are shown in (FIG. 6). All isolates were resistant to all three β-lactam antibiotics used for the study. […] As expected, the study with meropenem was slightly different from others.
Antimicrobial Susceptibility Assay. The in vitro antimicrobial activity of all compounds/antibiotics against a panel of bacteria was evaluated by microbroth dilution method in accordance with the Clinical and Laboratory Standards Institute (CLSI) guidelines. Overnight grown bacterial cultures were diluted in saline to achieve a 0.5 McFarland turbidity, followed by 1:50 dilution in Mueller-Hinton broth (MHB) for inoculation to a final concentration of approximately 5×10^5CFU/mL. The antimicrobial agents were 2-fold serially diluted in MHB in a 96-well plate and incubated at 37° C. with equal volumes of inoculum for 18 h. The lowest concentration that prevented the visible growth of bacteria was defined as the MIC for each antimicrobial agent. The broth with or without bacterial cells was used as positive or negative control, respectively.
Checkerboard Assay. Combination studies with different antibiotics were performed in 96-well plates as previously described (22). Briefly, the antibiotic of interest was serially diluted in MHB along the abscissa while the adjuvant (newly synthesized conjugates) was serially diluted in MHB along the ordinate. This creates a 10×7 matrix wherein each well consists of a combination of different antibiotic and adjuvant concentrations. Overnight grown bacterial cultures were diluted in saline to achieve a 0.5 McFarland turbidity, followed by 1:50 dilution in Mueller-Hinton broth (MHB) for inoculation to a final concentration of approximately 5×10^5CFU/mL. Equal volume of this bacterial culture was then added to each well and incubated at 37° C. for 18 h. After incubation, the plates were read on EMax® Plus microplate reader (Molecular Devices, Sunnyvale, Calif., USA) at 590 nm. MIC was recorded as wells with the lowest concentration of drugs with no bacterial growth. The fractional inhibitory concentration (FIC) for each antibiotic was calculated by dividing the MIC of the antibiotic in the presence of adjuvant by the MIC of the antibiotic alone. Similarly, the FIC of adjuvant was calculated by dividing the MIC of the adjuvant in the presence of antibiotic by the MIC of the adjuvant alone. FIC index is the sum of both FICs. FIC indices of <0.5 were deemed synergistic; 0.5-4, no interaction; and >4, antagonistic.

NC(=O)[C@@H]1CC[C@@H]2CN1C(=O)N2OS(=O)(=O)O [Avibactam]
concentration that completely reverses resistance to ceftazidime and aztreonam (16-64 μM, not meropenem): 4 to 16 µg/mL | isolates reaching aztreonam susceptibility breakpoint (≤8 μg/ml) (aztreonam + single adjuvant 8 μM): three out of five | isolates reaching ceftazidime susceptibility breakpoint (≤8 μg/ml) (ceftazidime + single adjuvant 8 μM): four out of five | isolates reaching meropenem susceptibility level (meropenem + single adjuvant 8 μM): one of five | potentiation of ceftazidime (single adjuvant at 8 μM, five isolates): 4-16 fold
